{
  "source": "patent US20120302566A1",
  "about": "“INDANYLOXYDIHYDROBENZOFURANYLACETIC ACIDS” (BOEHRINGER INGELHEIM INTERNATIONAL GMBH, priority 2010, published 2012)",
  "note": "pEC50: −log10 of the molar value.",
  "data": [
    {"target": "human GPR40 receptor (Homo sapiens, UniProt O14842)", "sequence (O14842 whole entry)": "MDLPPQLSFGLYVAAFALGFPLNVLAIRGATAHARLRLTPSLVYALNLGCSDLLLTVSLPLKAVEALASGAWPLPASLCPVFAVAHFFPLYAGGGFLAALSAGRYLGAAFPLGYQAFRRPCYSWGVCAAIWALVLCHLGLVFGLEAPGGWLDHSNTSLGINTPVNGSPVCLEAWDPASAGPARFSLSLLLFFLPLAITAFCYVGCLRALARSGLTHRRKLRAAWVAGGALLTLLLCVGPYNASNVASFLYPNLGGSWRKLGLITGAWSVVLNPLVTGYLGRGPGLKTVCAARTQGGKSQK", "assay": "IP1 accumulation measurements using the IPOne assay system", "format": "cell-based", "details": "IP1 accumulation (IPOne HTRF), 1 hour stimulation; 1321N1 cells stably expressing human GPR40; read-out: EC50 values on GPR40 determined as described in (B)", "procedure": "(B) IP1 accumulation measurements using the IPOne assay system—1321N1 cells stably expressing human GPR40 receptor (Euroscreen, Belgium) were seeded 24 h before the assay in black clear-bottom collagen-coated 384-well plates in culture medium containing 10% FCS, 1% Na-Pyruvate and 400 μg/mL G418. IP1 is assayed according to the Manufacturer's description (Cisbio Bioassays, France). In brief, the assay is started by substitution of the culture medium by stimulation buffer (Hepes 10 mM, CaCl2 1 mM, MgCl2 0.5 mM, KCl 4.2 mM, NaCl 146 mM and glucose 5.5 mM, pH 7.4) without LiCl. Cells are stimulated for 1 hour at 37°, 10% CO2 by addition of the compounds that were diluted in stimulation buffer containing LiCl yielding a final LiCl concentration of 50 mM. Assays are stopped by adding HTRF-conjugates (IP1-d2 and Anti-IP1 cryptate Tb) and lysis buffer, provided by the manufacturer. After an incubation time of 1 hour at room temperature plates are measured using an EnVision™, Perkin Elmer.", "values": [
      {"smiles": "CC1(C)CCCO[C@@H]1c1cccc2c1CC[C@H]2Oc1ccc2c(c1)OC[C@H]2CC(=O)O", "note": "(single isomer, unassigned) [Example 66]", "pEC50": 7.10},
      {"smiles": "Cc1cccc(C)c1-c1cccc2c1CC[C@H]2Oc1ccc2c(c1)OC[C@H]2CC(=O)O", "note": "[Example 33, {(S)-6-[(R)-4-(2,6-Dimethyl-phenyl)-indan-1-yloxy]-2,3-dihydro-benzofuran-3-yl}-acetic acid]", "pEC50": 8.40},
      {"smiles": "Cc1ccc(C(F)(F)F)c2c1[C@H](Oc1ccc3c(c1)OC[C@H]3CC(=O)O)CC2", "note": "[Example 30, {(S)-6-[(R)-7-Methyl-4-trifluoromethyl-indan-1-yloxy]-2,3-dihydro-benzofuran-3-yl}-acetic acid]", "pEC50": 6.52},
      {"smiles": "CC(O)(c1cccc2c1CC[C@H]2Oc1ccc2c(c1)OC[C@H]2CC(=O)O)C1CCOCC1", "note": "(stereo partly drawn) [Example 81, ((S)-6-{(R)-4-[1-Hydroxy-1-(tetrahydro-pyran-4-yl)-ethyl]-indan-1-yloxy}-2,3-dihydro-benzofuran-3-yl)-acetic acid]", "pEC50": 5.81},
      {"smiles": "COc1cc(C)c(-c2cccc3c2CC[C@H]3Oc2ccc3c(c2)OC[C@H]3CC(=O)O)c(C)c1", "note": "[Example 59, {(S)-6-[(R)-4-(4-Methoxy-2,6-dimethyl-phenyl)-indan-1-yloxy]-2,3-dihydro-benzofuran-3-yl}-acetic acid]", "pEC50": 6.49},
      {"smiles": "Cc1cc2c(c(C(F)(F)F)c1)CC[C@H]2Oc1ccc2c(c1)OC[C@H]2CC(=O)O", "note": "[Example 26, {(S)-6-[(R)-6-Methyl-4-trifluoromethyl-indan-1-yloxy]-2,3-dihydro-benzofuran-3-yl}-acetic acid]", "pEC50": 7.72},
      {"smiles": "O=C(O)C[C@@H]1COc2cc(O[C@@H]3CCc4c(-c5c(Cl)cccc5Cl)cccc43)ccc21", "note": "[Example 88, {(S)-6-[(R)-4-(2,6-Dichloro-phenyl)-indan-1-yloxy]-2,3-dihydro-benzofuran-3-yl}-acetic acid]", "pEC50": 7.55},
      {"smiles": "O=C(O)C[C@@H]1COc2cc(O[C@@H]3CCc4cc(Cl)ccc43)ccc21", "note": "[Example 21, {(S)-6-[(R)-5-Chloro-indan-1-yloxy]-2,3-dihydro-benzofuran-3-yl}-acetic acid]", "pEC50": 7.27},
      {"smiles": "O=C(O)C[C@@H]1COc2cc(O[C@@H]3CCc4ccc(C(F)(F)F)cc43)ccc21", "note": "[Example 19, {(S)-6-[(R)-6-Trifluoromethyl-indan-1-yloxy]-2,3-dihydro-benzofuran-3-yl}-acetic acid]", "pEC50": 5.29},
      {"smiles": "COC(c1cccc2c1CC[C@H]2Oc1ccc2c(c1)OC[C@H]2CC(=O)O)C(C)(C)C", "note": "(mixture of isomers) [Example 27, {(S)-6-[(R)-4-(1-Methoxy-2,2-dimethyl-propyl)-indan-1-yloxy]-2,3-dihydro-benzofuran-3-yl}-acetic acid]", "pEC50": 7.64},
      {"smiles": "O=C(O)C[C@@H]1COc2cc(O[C@H]3CCc4ccc(Br)cc43)ccc21", "note": "[Example 55, {(S)-6-[(S)-6-Bromo-indan-1-yloxy]-2,3-dihydro-benzofuran-3-yl}-acetic acid]", "pEC50": 5.54},
      {"smiles": "CC(C)c1ccccc1-c1cccc2c1CC[C@H]2Oc1ccc2c(c1)OC[C@H]2CC(=O)O", "note": "[Example 35, {(S)-6-[(R)-4-(2-Isopropyl-phenyl)-indan-1-yloxy]-2,3-dihydro-benzofuran-3-yl}-acetic acid]", "pEC50": 8.40},
      {"smiles": "COc1ncc(C)c(-c2cccc3c2CC[C@H]3Oc2ccc3c(c2)OC[C@H]3CC(=O)O)c1C", "note": "[Example 60, {(S)-6-[(R)-4-(2-Methoxy-3,5-dimethyl-pyridin-4-yl)-indan-1-yloxy]-2,3-dihydro-benzofuran-3-yl}-acetic acid]", "pEC50": 7.29},
      {"smiles": "O=C(O)C[C@@H]1COc2cc(O[C@@H]3CCc4c(C5CC5)cccc43)ccc21", "note": "[Example 31, {(S)-6-[(R)-4-Cyclopropyl-indan-1-yloxy]-2,3-dihydro-benzofuran-3-yl}-acetic acid]", "pEC50": 6.77},
      {"smiles": "CC1(c2cccc3c2CC[C@H]3Oc2ccc3c(c2)OC[C@H]3CC(=O)O)CC1", "note": "[Example 87, {(S)-6-[(R)-4-(1-Methyl-cyclopropyl)-indan-1-yloxy]-2,3-dihydro-benzofuran-3-yl}-acetic acid]", "pEC50": 7.19},
      {"smiles": "COc1cc(C)c(-c2cccc3c2CC[C@H]3Oc2ccc3c(c2)OC[C@H]3CC(=O)O)c(C)n1", "note": "[Example 64, {(S)-6-[(R)-4-(6-Methoxy-2,4-dimethyl-pyridin-3-yl)-indan-1-yloxy]-2,3-dihydro-benzofuran-3-yl}-acetic acid]", "pEC50": 6.67},
      {"smiles": "Cc1nccnc1-c1cccc2c1CC[C@H]2Oc1ccc2c(c1)OC[C@H]2CC(=O)O", "note": "[Example 99, {(S)-6-[(R)-4-(3-Methyl-pyrazin-2-yl)-indan-1-yloxy]-2,3-dihydro-benzofuran-3-yl}-acetic acid]", "pEC50": 5.49},
      {"smiles": "O=C(O)C[C@@H]1COc2cc(O[C@@H]3CCc4c3ccc(C(F)(F)F)c4Cl)ccc21", "note": "[Example 98, {(S)-6-[(R)-4-Chloro-5-trifluoromethyl-indan-1-yloxy]-2,3-dihydro-benzofuran-3-yl}-acetic acid]", "pEC50": 7.34},
      {"smiles": "CC(C)(C)Cc1cccc2c1CC[C@H]2Oc1ccc2c(c1)OC[C@H]2CC(=O)O", "note": "[Example 34, {(S)-6-[(R)-4-(2,2-Dimethyl-propyl)-indan-1-yloxy]-2,3-dihydro-benzofuran-3-yl}-acetic acid]", "pEC50": 7.89},
      {"smiles": "Cc1cccc(Cl)c1-c1cccc2c1CC[C@H]2Oc1ccc2c(c1)OC[C@H]2CC(=O)O", "note": "[Example 90, {(S)-6-[(R)-4-(2-Chloro-6-methyl-phenyl)-indan-1-yloxy]-2,3-dihydro-benzofuran-3-yl}-acetic acid]", "pEC50": 7.44},
      {"smiles": "O=C(O)C[C@@H]1COc2cc(O[C@@H]3CCc4cccc(C(F)(F)F)c43)ccc21", "note": "[Example 23, {(S)-6-[(R)-7-Trifluoromethyl-indan-1-yloxy]-2,3-dihydro-benzofuran-3-yl}-acetic acid]", "pEC50": 5.04},
      {"smiles": "Cc1cccc(C)c1-c1ccc2c(c1)CC[C@H]2Oc1ccc2c(c1)OC[C@H]2CC(=O)O", "note": "[Example 52, {(S)-6-[(R)-5-(2,6-Dimethyl-phenyl)-indan-1-yloxy]-2,3-dihydro-benzofuran-3-yl}-acetic acid]", "pEC50": 6.95},
      {"smiles": "Cc1ncnc(C)c1-c1cccc2c1CC[C@H]2Oc1ccc2c(c1)OC[C@H]2CC(=O)O", "note": "[Example 86, {(S)-6-[(R)-4-(4,6-Dimethyl-pyrimidin-5-yl)-indan-1-yloxy]-2,3-dihydro-benzofuran-3-yl}-acetic acid]", "pEC50": 6.38},
      {"smiles": "CC1OC(c2cccc3c2CC[C@H]3Oc2ccc3c(c2)OC[C@H]3CC(=O)O)C1(C)C", "note": "(single isomer, unassigned) [Example 41]", "pEC50": 6.49},
      {"smiles": "CC1(C)CCC=C1c1cccc2c1CC[C@H]2Oc1ccc2c(c1)OC[C@H]2CC(=O)O", "note": "[Example 40, {(S)-6-[(R)-4-(5,5-Dimethyl-cyclopent-1-enyl)-indan-1-yloxy]-2,3-dihydro-benzofuran-3-yl}-acetic acid]", "pEC50": 7.89},
      {"smiles": "CC1(C)CCCO[C@H]1c1cccc2c1CC[C@H]2Oc1ccc2c(c1)OC[C@H]2CC(=O)O", "note": "(single isomer, unassigned) [Example 67]", "pEC50": 6.75},
      {"smiles": "Cc1noc(C)c1-c1cccc2c1CC[C@H]2Oc1ccc2c(c1)OC[C@H]2CC(=O)O", "note": "[Example 74, {(S)-6-[(R)-4-(3,5-Dimethyl-isoxazol-4-yl)-indan-1-yloxy]-2,3-dihydro-benzofuran-3-yl}-acetic acid]", "pEC50": 6.49},
      {"smiles": "Cc1ccc2ccccc2c1-c1cccc2c1CC[C@H]2Oc1ccc2c(c1)OC[C@H]2CC(=O)O", "note": "[Example 80, {(S)-6-[(R)-4-(2-Methyl-naphthalen-1-yl)-indan-1-yloxy]-2,3-dihydro-benzofuran-3-yl}-acetic acid]", "pEC50": 7.70},
      {"smiles": "COC(C)(c1cccc2c1CC[C@H]2Oc1ccc2c(c1)OC[C@H]2CC(=O)O)C(C)(C)C", "note": "(stereo partly drawn) [Example 78, {(S)-6-[(R)-4-(1-Methoxy-1,2,2-trimethyl-propyl)-indan-1-yloxy]-2,3-dihydro-benzofuran-3-yl}-acetic acid]", "pEC50": 7.12},
      {"smiles": "CC1(C)CCC[C@@H]1c1cccc2c1CC[C@H]2Oc1ccc2c(c1)OC[C@H]2CC(=O)O", "note": "(single isomer, unassigned) [Example 75]", "pEC50": 7.41},
      {"smiles": "O=C(O)C[C@@H]1COc2cc(O[C@@H]3CCc4c(OC(F)(F)F)cccc43)ccc21", "note": "[Example 25, {(S)-6-[(R)-4-Trifluoromethoxy-indan-1-yloxy]-2,3-dihydro-benzofuran-3-yl}-acetic acid]", "pEC50": 7.74},
      {"smiles": "CC(C)(O)C(F)(F)c1cccc2c1CC[C@H]2Oc1ccc2c(c1)OC[C@H]2CC(=O)O", "note": "[Example 85, {(S)-6-[(R)-4-(1,1-Difluoro-2-hydroxy-2-methyl-propyl)-indan-1-yloxy]-2,3-dihydro-benzofuran-3-yl}-acetic acid]", "pEC50": 5.43},
      {"smiles": "O=C(O)C[C@@H]1COc2cc(O[C@@H]3CCc4c3ccc(F)c4F)ccc21", "note": "[Example 37, {(S)-6-[(R)-4,5-Difluoro-indan-1-yloxy]-2,3-dihydro-benzofuran-3-yl}-acetic acid]", "pEC50": 7.11},
      {"smiles": "CC(C)c1ccccc1-c1ccc2c(c1)CC[C@H]2Oc1ccc2c(c1)OC[C@H]2CC(=O)O", "note": "[Example 54, {(S)-6-[(R)-5-(2-Isopropyl-phenyl)-indan-1-yloxy]-2,3-dihydro-benzofuran-3-yl}-acetic acid]", "pEC50": 6.59},
      {"smiles": "O=C(O)C[C@@H]1COc2cc(O[C@@H]3CCc4c(C5=CCCC56CCOCC6)cccc43)ccc21", "note": "[Example 47, {(S)-6-[(R)-4-(8-Oxa-spiro[4.5]dec-1-en-1-yl)-indan-1-yloxy]-2,3-dihydro-benzofuran-3-yl}-acetic acid]", "pEC50": 7.15}
    ]}
  ]
}
